Assay results taken from patent publication US10227346B2, “Methyl- and trifluoromethyl-substituted pyrrolopyridine modulators of RORC2 and methods of use therof” (Pfizer Inc., priority 2014, dated 2019).

Tested on: IL-17 production from human Th17 cells;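 further: purified human CD4+ T cells activated with anti-CD3 plus anti-CD28 and a Th17-inducing cytokine cocktail, with compound at serial concentrations versus no compound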
Experiment: IL-17 production from human Th17 cells;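 further: purified human CD4+ T cells activated with anti-CD3 plus anti-CD28 and a Th17-inducing cytokine cocktail, with compound at serial concentrations versus no compound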
Type: cell-based
Settings: IL-17A in supernatant by ELISA after 6 days, human CD4+ T cells under Th17 differentiation

| SMILES | IC50 [µM] |
| --- | --- |
| Cn1cc(C2CCN(C(=O)CC3CCC3)CC2)c2c(C(F)(F)F)c(NC(=O)c3cccc(C#N)c3)cnc21 [Example 18, 3-cyano-N-(3-(1-(2-cyclobutylacetyl)piperidin-4-yl)-1-methyl-4-(trifluoromethyl)-1H-pyrrolo[2,3-b]pyridin-5-yl)benzamide] | 0.0108 |
| COc1cc(Cl)cc(C(=O)Nc2cnc3c(c(C4CCN(C(=O)C(C)C)CC4)cn3C)c2C(F)(F)F)c1 [Example 13, 3-chloro-N-(3-(1-isobutyrylpiperidin-4-yl)-1-methyl-4-(trifluoromethyl)-1H-pyrrolo[2,3-b]pyridin-5-yl)-5-methoxybenzamide] | 0.0487 |
| CC(C)C(=O)N1CCC(c2cn(C)c3ncc(NC(=O)c4ccc(F)c(C#N)c4)c(C(F)(F)F)c23)CC1 [Example 9, 3-cyano-4-fluoro-N-(3-(1-isobutyrylpiperidin-4-yl)-1-methyl-4-(trifluoromethyl)-1H-pyrrolo[2,3-b]pyridin-5-yl)benzamide] | 0.0275 |
| Cc1c(NC(=O)c2cc(Cl)ccc2F)cnc2c1c(C1CCN(C(=O)[C@H](C)C(C)(C)C)CC1)cn2C [Example 41, (R)-5-chloro-N-(1,4-dimethyl-3-(1-(2,3,3-trimethylbutanoyl)piperidin-4-yl)-1H-pyrrolo[2,3-b]pyridin-5-yl)-2-fluorobenzamide] | 0.0189 |
| Cn1cc(C2CCN(C(=O)[C@H]3C[C@H]4CCCC[C@H]4C3)CC2)c2c(C(F)(F)F)c(NC(=O)c3cccc(C#N)c3)cnc21 [Example 16, 3-cyano-N-(1-methyl-3-(1-((2r,3aR,7aS)-octahydro-1H-indene-2-carbonyl)piperidin-4-yl)-4-(trifluoromethyl)-1H-pyrrolo[2,3-b]pyridin-5-yl)benzamide] | 0.0107 |
| Cc1c(NC(=O)c2cccc(C#N)c2)cnc2c1c([C@@H]1CCN(C(=O)C[C@@H](O)C(F)(F)F)C(C)(C)C1)cn2C [Example 73, 3-cyano-N-(3-((R)-2,2-dimethyl-1-((R)-4,4,4-trifluoro-3-hydroxybutanoyl)piperidin-4-yl)-1,4-dimethyl-1H-pyrrolo[2,3-b]pyridin-5-yl)benzamide] | 0.0253 |
| CC(C)C(=O)N1CCC(c2cn(C)c3ncc(NC(=O)c4ccc(F)c(Cl)c4)c(C(F)(F)F)c23)CC1 [Example 12, 3-chloro-4-fluoro-N-(3-(1-isobutyrylpiperidin-4-yl)-1-methyl-4-(trifluoromethyl)-1H-pyrrolo[2,3-b]pyridin-5-yl)benzamide] | 0.0579 |

Molecules with a lower IC50, results first:

| IC50 [µM] | SMILES |
| --- | --- |
| 0.0078 | CC(C)C(=O)N1CCC(c2cn(C)c3ncc(NC(=O)c4ccc(Cl)c(C#N)c4)c(C(F)(F)F)c23)CC1 [Example 11, 4-chloro-3-cyano-N-(3-(1-isobutyrylpiperidin-4-yl)-1-methyl-4-(trifluoromethyl)-1H-pyrrolo[2,3-b]pyridin-5-yl)benzamide] |
| 0.008 | Cc1c(NC(=O)c2cccc(C#N)c2)cnc2c1c(C1CCN(C(=O)[C@@H]3CCCC3C(C)C)CC1)cn2C (stereo in doubt) [Example 49, 3-cyano-N-(3-(1-((1R,2R)-2-isopropylcyclopentane-1-carbonyl)piperidin-4-yl)-1,4-dimethyl-1H-pyrrolo[2,3-b]pyridin-5-yl)benzamide] |
| 0.0092 | Cc1c(NC(=O)c2cccc(C#N)c2)cnc2c1c(C1CCN(C(=O)[C@H](C)C(C)C)CC1)cn2C [Example 37, (R)-3-cyano-N-(3-(1-(2,3-dimethylbutanoyl)piperidin-4-yl)-1,4-dimethyl-1H-pyrrolo[2,3-b]pyridin-5-yl)benzamide] |
| 0.0049 | Cc1c(NC(=O)c2cc(O)cc(C#N)c2)cnc2c1c(C1CCN(C(=O)[C@H](C)C(C)(C)C)CC1)cn2C [Example 56, (R)-3-cyano-N-(1,4-dimethyl-3-(1-(2,3,3-trimethylbutanoyl)piperidin-4-yl)-1H-pyrrolo[2,3-b]pyridin-5-yl)-5-hydroxybenzamide] |
